# In patent publication US20090247455A1, “Isolation of Inhibitors of IRES-Mediated Translation” (priority 2005, published 2009):
# Test system: HEK293 cells comprising the pcDNA3-red-HCVIRES-gpt vector
# Assay: Growth of HEK293 cells with the IRES-gpt construct versus control cells in 6-thioxanthine (OD 590 nm)
# Assay type: cell-based
# Conditions: 100 μM, up to 9 days, OD at days 2, 6 and 9, versus control cells
# Protocol: FIG. 3 is a graphical representation showing the growth of HEK293 cells comprising a construct in which a gpt gene is placed under the control of a HCV IRES or control cells grown in the presence or absence of 6-thioxanthine (100 μM). The number of days of 6-thioxanthine treatment is indicated on the X-axis. The optical density at 590 nm of the tissue culture flask containing the cells is shown on the Y-axis. […] The OD590 of cells comprising the IRES-gpt construct grown in the absence of 6-thioxanthine are represented by solid squares and dashed line. The OD590 of cells comprising the IRES-gpt construct grown in the presence of 6-thioxanthine are represented by solid squares and solid line.
# Cells were also screened to determine those capable of expressing gpt under the control of HCV IRES. Briefly, transfected cells or control cells were maintained either in the absence or presence of 6-thioxanthine (100 μM) for up to 9 days. To determine any change in cell number an optical density measurement was performed at 590 nm at days 2, 6 and 9 after the addition of 6-thioxanthine to the relevant cells.
compound,measurement,value
O=c1[nH]c(=S)c2[nH]cnc2[nH]1 [6-thioxanthine],susceptibility of cells to 6-thioxanthine selection (optical density at 590 nm),considerably more susceptible
